Drawing on BindingDB's records for PubMed 11454905 (Eli Lilly, 2001), this text covers Ki for 22 compounds.

Molecules are shown by their SMILES. Residues, ends and D or L forms follow the SMILES beside them. A value given as a limit tells only on which side of the number the result lay.

The experiment concerns the target Metabotropic glutamate receptor 3 (Rattus norvegicus, UniProt P31422).

Metabotropic glutamate receptor 3, sequence (P31422 whole entry): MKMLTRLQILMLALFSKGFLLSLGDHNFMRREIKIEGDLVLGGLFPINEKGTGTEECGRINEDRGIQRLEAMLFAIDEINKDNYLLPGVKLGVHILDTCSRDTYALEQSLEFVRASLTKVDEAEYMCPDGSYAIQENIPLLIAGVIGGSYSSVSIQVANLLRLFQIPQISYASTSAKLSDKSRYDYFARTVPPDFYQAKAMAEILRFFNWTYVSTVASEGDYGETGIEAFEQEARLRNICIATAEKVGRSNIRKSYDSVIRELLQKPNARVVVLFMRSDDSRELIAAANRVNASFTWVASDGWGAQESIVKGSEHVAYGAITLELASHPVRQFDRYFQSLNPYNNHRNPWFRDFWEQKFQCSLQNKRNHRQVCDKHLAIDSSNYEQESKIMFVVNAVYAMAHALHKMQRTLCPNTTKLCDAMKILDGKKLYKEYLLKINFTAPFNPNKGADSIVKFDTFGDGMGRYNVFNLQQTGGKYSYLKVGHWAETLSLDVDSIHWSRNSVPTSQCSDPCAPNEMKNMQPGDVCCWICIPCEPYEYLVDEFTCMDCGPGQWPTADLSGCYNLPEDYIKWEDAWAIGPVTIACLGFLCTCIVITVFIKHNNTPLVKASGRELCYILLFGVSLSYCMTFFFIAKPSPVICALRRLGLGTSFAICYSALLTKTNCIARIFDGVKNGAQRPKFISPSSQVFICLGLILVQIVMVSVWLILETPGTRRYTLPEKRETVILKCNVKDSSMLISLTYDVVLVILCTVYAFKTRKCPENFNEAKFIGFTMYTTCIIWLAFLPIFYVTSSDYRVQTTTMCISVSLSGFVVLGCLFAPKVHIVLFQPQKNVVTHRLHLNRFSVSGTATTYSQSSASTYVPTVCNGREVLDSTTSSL

Compound `N[C@@H](CCP(=O)(O)O)C(=O)O` returned an inhibitory constant (Ki) greater than 10 µM.

Consider `N[C@@]1(C(=O)O)CN[C@@H](C(=O)O)C1` [2R, 4R-APDC], for which the inhibition constant Ki was found to be 2.73 µM. In other words, the single-digit micromolar range. `N[C@@H](C[C@@H](CCCC(c1ccccc1)c1ccccc1)C(=O)O)C(=O)O` [LY307452] had an inhibition constant (Ki) of 2.01 µM. The compound `NC(C(=O)O)c1ccc(P(=O)(O)O)cc1` (configuration not stated) [Amino-(4-phosphono-phenyl)-acetic acid(RS-PPG)] had a Ki greater than 10 µM.

The compound `N[C@H](C(=O)O)C1[C@@H](C(=O)O)[C@@H]1C(=O)O` (some centres not stated) [DCG-IV] registered a Ki of 0.061 µM. Consider `N[C@@H](CC(=O)O)C(=O)O` [L-Aspartic acid, 2], for which the Ki is greater than 10 µM. Next, `CC(N)(C(=O)O)c1ccc(P(=O)(O)O)cc1` (configuration not stated): greater than 10 µM; `N[C@@]1(C(=O)O)CO[C@H]2[C@H](C(=O)O)[C@H]21` [LY379268]: 0.0065 µM; `Nc1nc(O)c2ncn(COC(CO)CO)c2n1` [CAS_82410-32-0]: greater than 10 µM.

Turning to `NC(Cn1cnc2c(=O)[nH]c(=O)[nH]c21)(C(=O)O)C1CC1C(=O)O` (configuration not stated) [CAS_5311260], the inhibition constant Ki came to 0.0008 µM. `CC(=O)N[C@@H](CC(=O)O)C(=O)N[C@@H](CCC(=O)O)C(=O)O` [[3H]NAAG] (Ac-Asp-Glu-OH) gave an inhibition constant Ki greater than 10 µM. Turning to `N[C@H](CP(=O)(O)O)C(=O)O` [CAS_23052-80-4], the inhibitory constant (Ki) was greater than 10 µM. On to `N[C@@H](CCC(=O)O)C(=O)O` [L-Glutamic acid], for which the Ki was greater than 10 µM. Next, `C[C@@](N)(C(=O)O)c1ccc(C(=O)O)cc1` (racemic): greater than 10 µM; `N[C@H](C(=O)O)[C@H]1C[C@H]1C(=O)O` [L-CCG-IV]: 0.334 µM; `N[C@@H](Cn1oc(=O)[nH]c1=O)C(=O)O` [2-amino-3-(3,5-dioxo[1,2,4]oxadiazolidin-2-yl)propionic acid]: greater than 10 µM. Next, `NC(CCC(=O)O)C(=O)O` (configuration not stated) [glutamic acid dianion]: 0.09 µM.

The compound `N[C@@]1(C(=O)O)CC[C@H]2[C@H](C(=O)O)[C@H]21` [(2S,6S)-2-Amino-bicyclo[3.1.0]hexane-2,6-dicarboxylic acid] yielded a Ki greater than 10 µM. Take `O=C(O)[C@H]1[C@H]2CN[C@H](C(=O)O)[C@H]21`: the Ki is greater than 10 µM. Compound `N[C@@]1(C(=O)O)CC[C@H](CC(=O)O)C1` [(1S,3S)-HOMO-ACPD] returned an inhibitory constant (Ki) of 8.69 µM. For the compound `O=C(O)[C@H]1CN[C@H](C(=O)O)C1` [t-PDC], the Ki is greater than 10 µM. Next, `N[C@@]1(C(=O)O)CC[C@H](C(=O)O)C1` [1S, 3R-ACPD]: greater than 10 µM.
